Experiments:
[1] = test system: Candida haemulonii; experiment: Planktonic growth, broth microdilution (CLSI M27-A3), MIC; assay type: cell-based; conditions: for GM-MIC: geometric mean of three C. haemulonii isolates; for MIC: planktonic, 48 h, 37°C
In short: (§1)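 Following CLSI M27-A3, compounds were serially diluted in RPMI 1640 (0.0625-32 mg/L) and incubated with isolates at 37°C for 48 h. Visual reading gave the MIC as the lowest growth-free concentration, and MICs were pooled as a geometric mean over isolates; inocula came from 48 h Sabouraud-dextrose cultures.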

[2] = test system: Candida duobushaemulonii; experiment: as above; assay type: cell-based; conditions: for GM-MIC: geometric mean of three C. duobushaemulonii isolates; for MIC: planktonic, 48 h, 37°C
In short: as §1

[3] = test system: Candida haemulonii var. vulnera; experiment: as above; assay type: cell-based; conditions: for GM-MIC: geometric mean of three C. haemulonii var. vulnera isolates; for MIC: planktonic, 48 h, 37°C
In short: as §1

[4] = test system: Candida haemulonii; experiment: Biofilm-growing cells, XTT assay, bMIC; assay type: cell-based; conditions: for GM-bMIC: geometric mean, C. haemulonii isolates, values marked * do not include LIP Ch4 (>512); for bMIC: mature biofilm, 48 h, 50% inhibition of metabolic activity
Method: (§2) The effect of the compounds on biofilm-growing cells was determined using the previously described microtiter-based technique (Ramage et al., [2001]). The fungi (10^6 yeast cells) were incubated for 48 h at 37°C in 96-well polystyrene microtiter plates (Corning®, Corning Incorporated, USA) containing Sabouraud-dextrose broth to accommodate biofilm formation. Following biofilm formation, the culture medium was aspirated and non-adherent cells removed by thoroughly washing the wells three times with sterile PBS (0.15 M NaCl, 0.01 M phosphate buffer, pH 7.2). Afterwards, the compounds, at the same concentrations used in the planktonic assays, were added to the wells, and the plates were incubated for further 48 h at 37°C. The metabolic activity was then evaluated using a colorimetric assay that measures the metabolic reduction of 2,3-bis (2-methoxy-4-nitro-5-sulfophenyl)-5-[(phenylamino) carbonyl]-2H-tetrazolium hydroxide (XTT; Sigma-Aldrich) to a water-soluble, brown formazan product (Peeters et al., [2008]). The biofilm MIC (bMIC) for each compound was established as the minimal concentration capable of inhibiting 50% of metabolic activity when compared to compound-free wells (Ziccardi et al., [2015]).

[5] = test system: Candida duobushaemulonii; experiment: Biofilm-growing cells, XTT assay, bMIC; assay type: cell-based; conditions: for GM-bMIC: geometric mean, C. duobushaemulonii isolates; for bMIC: mature biofilm, 48 h, 50% inhibition of metabolic activity
Method: as §2

[6] = test system: Candida haemulonii var. vulnera; experiment: Biofilm-growing cells, XTT assay, bMIC; assay type: cell-based; conditions: for GM-bMIC: geometric mean, C. haemulonii var. vulnera isolates; for bMIC: mature biofilm, 48 h, 50% inhibition of metabolic activity
Method: as §2

[7] = test system: Candida haemulonii complex; experiment: Biofilm-growing cells, overall across isolates; assay type: cell-based; conditions: for Overall GM-bMIC: geometric mean across strains, values marked * do not include LIP Ch4 (>512); for decrease in activity on going from planktonic to biofilm cells: biofilm MIC versus planktonic MIC
Method: as §2

[8] = test system: C. haemulonii complex; experiment: Planktonic growth, overall across all nine isolates; assay type: cell-based, Candida haemulonii complex; conditions: geometric mean across all nine strains; for MIC: in μM, read-out: Overall GM-MIC
In short: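 CLSI M27-A3 microdilution, RPMI 1640, 0.0625-32 mg/L; compounds from DMSO, metal salts and phen in water; 37°C, 48 h; MIC = no visible growth. Overall value: GM-MIC over nine isolates.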

[9] = test system: A549 cells; experiment: Mammalian cell toxicity (MTT assay) and selectivity index; assay type: cell-based, Human; conditions: MTT, 48 h incubation
In short: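 A549 cells were exposed to compounds (0.0313–512 μg/mL) in DMEM for 48 h at 37 °C, 5% CO2. Viability was measured by MTT (3 h, dark), with formazan dissolved in DMSO and read at 450 nm. CC50 was derived, and SI calculated as A549 CC50 divided by C. haemulonii complex GM-MIC.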

O.O.O.O.O.O.O=C([O-])CCCCCCC(=O)[O-].O=C([O-])CCCCCCC(=O)[O-].O=C([O-])CCCCCCC(=O)[O-].O=C([O-])CCCCCCC(=O)[O-].[Mn+2].[Mn+2].[Mn+2].[Mn+2].c1cnc2c(c1)ccc1cccnc12.c1cnc2c(c1)ccc1cccnc12.c1cnc2c(c1)ccc1cccnc12.c1cnc2c(c1)ccc1cccnc12.c1cnc2c(c1)ccc1cccnc12.c1cnc2c(c1)ccc1cccnc12.c1cnc2c(c1)ccc1cccnc12.c1cnc2c(c1)ccc1cccnc12 [compound 13, [Mn2(oda)(phen)4(H2O)2][Mn2(oda)(phen)4(oda)2].4H2O]
GM-MIC [1]: 2 µg/mL
MIC ([1]; isolate LIP Ch4): 2 µg/mL
MIC ([1]; isolate LIP Ch7): 2 µg/mL
MIC ([1]; isolate LIP Ch12): 2 µg/mL
GM-MIC [2]: 2.52 µg/mL
MIC ([2]; isolate LIP Ch1): 2 µg/mL
MIC ([2]; isolate LIP Ch6): 4 µg/mL
MIC ([2]; isolate LIP Ch8): 2 µg/mL
GM-MIC [3]: 2 µg/mL
MIC ([3]; isolate LIP Ch5): 2 µg/mL
MIC ([3]; isolate LIP Ch9): 2 µg/mL
MIC ([3]; isolate LIP Ch11): 2 µg/mL
GM-bMIC [4]: 22.63^* mg/L
bMIC ([4]; isolate LIP Ch4): >512 mg/L
bMIC ([4]; isolate LIP Ch7): 32 mg/L
bMIC ([4]; isolate LIP Ch14): 16 mg/L
GM-bMIC [5]: 5.04 mg/L
bMIC ([5]; isolate LIP Ch1): 4 mg/L
bMIC ([5]; isolate LIP Ch6): 4 mg/L
bMIC ([5]; isolate LIP Ch8): 8 mg/L
GM-bMIC [6]: 8 mg/L
bMIC ([6]; isolate LIP Ch5): 16 mg/L
bMIC ([6]; isolate LIP Ch9): 4 mg/L
bMIC ([6]; isolate LIP Ch13): 8 mg/L
Overall GM-bMIC [7]: 8.72 mg/L
Overall GM-MIC [8]: 2.16 µg/mL
MIC [8]: 0.87 µM
A549 (CC50) [9]: >512 µg/mL

O=C1C(=O)c2cccnc2-c2ncccc21.O=C1C(=O)c2cccnc2-c2ncccc21.[Ag+].[O-][Cl+3]([O-])([O-])[O-] [compound 15, [Ag(phendione)2]ClO4]
GM-MIC [1]: 1 µg/mL
MIC ([1]; isolate LIP Ch4): 1 µg/mL
MIC ([1]; isolate LIP Ch7): 1 µg/mL
MIC ([1]; isolate LIP Ch12): 1 µg/mL
GM-MIC [2]: 2 µg/mL
MIC ([2]; isolate LIP Ch1): 2 µg/mL
MIC ([2]; isolate LIP Ch6): 2 µg/mL
MIC ([2]; isolate LIP Ch8): 2 µg/mL
GM-MIC [3]: 1.26 µg/mL
MIC ([3]; isolate LIP Ch5): 2 µg/mL
MIC ([3]; isolate LIP Ch9): 1 µg/mL
MIC ([3]; isolate LIP Ch11): 1 µg/mL
GM-bMIC [4]: 11.31^* mg/L
bMIC ([4]; isolate LIP Ch4): >512 mg/L
bMIC ([4]; isolate LIP Ch7): 8 mg/L
bMIC ([4]; isolate LIP Ch14): 16 mg/L
GM-bMIC [5]: 10.08 mg/L
bMIC ([5]; isolate LIP Ch1): 8 mg/L
bMIC ([5]; isolate LIP Ch6): 32 mg/L
bMIC ([5]; isolate LIP Ch8): 4 mg/L
GM-bMIC [6]: 32 mg/L
bMIC ([6]; isolate LIP Ch5): 32 mg/L
bMIC ([6]; isolate LIP Ch9): 32 mg/L
bMIC ([6]; isolate LIP Ch13): 32 mg/L
decrease in activity on going from planktonic to biofilm cells [7]: 11.8 fold
Overall GM-bMIC ([7]; in μM): 25.48 µM
Overall GM-bMIC [7]: 16 mg/L
Overall GM-MIC [8]: 1.36 µg/mL
MIC [8]: 2.16 µM
A549 (CC50) [9]: 3.76 µg/mL

[Ag+].[O-][Cl+3]([O-])([O-])[O-].c1cnc2c(c1)ccc1cccnc12.c1cnc2c(c1)ccc1cccnc12 [compound 17, [Ag(phen)2]ClO4]
GM-MIC [1]: 1 µg/mL
MIC ([1]; isolate LIP Ch4): 1 µg/mL
MIC ([1]; isolate LIP Ch7): 1 µg/mL
MIC ([1]; isolate LIP Ch12): 1 µg/mL
GM-MIC [2]: 1.59 µg/mL
MIC ([2]; isolate LIP Ch1): 2 µg/mL
MIC ([2]; isolate LIP Ch6): 1 µg/mL
MIC ([2]; isolate LIP Ch8): 2 µg/mL
GM-MIC [3]: 0.63 µg/mL
MIC ([3]; isolate LIP Ch5): 1 µg/mL
MIC ([3]; isolate LIP Ch9): 0.5 µg/mL
MIC ([3]; isolate LIP Ch11): 0.5 µg/mL
GM-bMIC [4]: 20.16 mg/L
bMIC ([4]; isolate LIP Ch4): 32 mg/L
bMIC ([4]; isolate LIP Ch7): 32 mg/L
bMIC ([4]; isolate LIP Ch14): 8 mg/L
GM-bMIC [5]: 10.08 mg/L
bMIC ([5]; isolate LIP Ch1): 16 mg/L
GM-bMIC [6]: 8 mg/L
bMIC ([6]; isolate LIP Ch9): 0.5 mg/L
bMIC ([6]; isolate LIP Ch13): 8 mg/L
decrease in activity on going from planktonic to biofilm cells [7]: 12.3 fold
Overall GM-bMIC ([7]; in μM): 21.73 µM
Overall GM-bMIC [7]: 12.34 mg/L
Overall GM-MIC [8]: 1 µg/mL
MIC [8]: 1.76 µM
A549 (CC50) [9]: 2.07 µg/mL

O.O.O.O=C([O-])CCCCCCCCCC(=O)[O-].[Ag+].[Ag+].c1cnc2c(c1)ccc1cccnc12.c1cnc2c(c1)ccc1cccnc12.c1cnc2c(c1)ccc1cccnc12 [compound 18, [Ag2(phen)3(udda)].3H2O]
GM-MIC [1]: 0.16 µg/mL
MIC ([1]; isolate LIP Ch4): 0.125 µg/mL
MIC ([1]; isolate LIP Ch7): 0.25 µg/mL
MIC ([1]; isolate LIP Ch12): 0.125 µg/mL
GM-MIC [2]: 0.5 µg/mL
MIC ([2]; isolate LIP Ch1): 0.5 µg/mL
MIC ([2]; isolate LIP Ch6): 0.25 µg/mL
MIC ([2]; isolate LIP Ch8): 1 µg/mL
GM-MIC [3]: 0.25 µg/mL
MIC ([3]; isolate LIP Ch5): 0.5 µg/mL
MIC ([3]; isolate LIP Ch9): 0.125 µg/mL
MIC ([3]; isolate LIP Ch11): 0.25 µg/mL
GM-bMIC [4]: 16 mg/L
bMIC ([4]; isolate LIP Ch4): 32 mg/L
bMIC ([4]; isolate LIP Ch7): 8 mg/L
bMIC ([4]; isolate LIP Ch14): 16 mg/L
GM-bMIC [5]: 10.08 mg/L
bMIC ([5]; isolate LIP Ch1): 16 mg/L
bMIC ([5]; isolate LIP Ch6): 8 mg/L
bMIC ([5]; isolate LIP Ch8): 8 mg/L
GM-bMIC [6]: 11.31 mg/L
bMIC ([6]; isolate LIP Ch5): 8 mg/L
bMIC ([6]; isolate LIP Ch9): 0.5 mg/L
bMIC ([6]; isolate LIP Ch13): 16 mg/L
decrease in activity on going from planktonic to biofilm cells [7]: 46.3 fold
Overall GM-bMIC ([7]; in μM): 12.04 µM
Overall GM-bMIC [7]: 12.34 mg/L
Overall GM-MIC [8]: 0.27 µg/mL
MIC [8]: 0.26 µM
A549 (CC50) [9]: 13.63 µg/mL

{[Mn(3,6,9-tdda)(phen)2].3H2O.EtOH}n [compound 14]
GM-MIC [1]: 2 µg/mL
MIC ([1]; isolate LIP Ch4): 2 µg/mL
MIC ([1]; isolate LIP Ch7): 2 µg/mL
MIC ([1]; isolate LIP Ch12): 2 µg/mL
GM-MIC [2]: 3.17 µg/mL
MIC ([2]; isolate LIP Ch1): 4 µg/mL
MIC ([2]; isolate LIP Ch6): 4 µg/mL
MIC ([2]; isolate LIP Ch8): 2 µg/mL
GM-MIC [3]: 2 µg/mL
MIC ([3]; isolate LIP Ch5): 2 µg/mL
MIC ([3]; isolate LIP Ch9): 2 µg/mL
MIC ([3]; isolate LIP Ch11): 2 µg/mL
GM-bMIC [4]: 20.16 mg/L
bMIC ([4]; isolate LIP Ch4): 512 mg/L
bMIC ([4]; isolate LIP Ch7): 4 mg/L
bMIC ([4]; isolate LIP Ch14): 4 mg/L
GM-bMIC [5]: 10.08 mg/L
bMIC ([5]; isolate LIP Ch1): 16 mg/L
bMIC ([5]; isolate LIP Ch6): 4 mg/L
bMIC ([5]; isolate LIP Ch8): 16 mg/L
GM-bMIC [6]: 8 mg/L
bMIC ([6]; isolate LIP Ch5): 16 mg/L
bMIC ([6]; isolate LIP Ch9): 4 mg/L
bMIC ([6]; isolate LIP Ch13): 8 mg/L
Overall GM-bMIC [7]: 11.76 mg/L
Overall GM-MIC [8]: 2.33 µg/mL
MIC [8]: 3.15 µM
A549 (CC50) [9]: 261.67 µg/mL

From paper PMC5504357, “Antifungal Potential of Copper(II), Manganese(II) and Silver(I) 1,10-Phenanthroline Chelates Against Multidrug-Resistant Fungal Species Forming the Candida haemulonii Complex: Impact on the Planktonic and Biofilm Lifestyles” (Frontiers in Microbiology, 2017)
